# In patent publication US20150140002A1, “USE OF A PCSK9 INHIBITOR TO TREAT […]” (Sanofi, priority 2013, published 2015):
# Values joined by “and” are separate entries in the source; they are usually repeats but may differ in a detail not shown here. Equal values may be shown once.
# Tested on: patients with hypercholesterolemia at moderate cardiovascular (CV) risk
# Experiment: Example 2: Phase 3 monotherapy trial mAb316P versus ezetimibe, lipid parameters
# Assay type: in vivo, human
# Settings: for Lp(a) adjusted mean (SE) % change from baseline to week 24 / TGs adjusted mean (SE) % change from baseline to week 24: combined estimate; for LS mean (SE) percent reductions in LDL-C from baseline to week 24 / LS mean (SE) LDL-C reductions from baseline to week 24: given as reduction; for LDL-C LS mean (SE) change from baseline (%): baseline to Week 24; for estimated proportions of patients with LDL-C reductions ≧50% at week 12 / proportions of patients with LDL-C reductions ≧50% at week 12: before up-titration; for reduction in Lp(a): current study, discussion; for reduction in LDL-C at 12 weeks: summary, mAb316P 75mg Q2W arm, monotherapy population; for time-course of LDL-C lowering: week 4 to week 24, on-treatment; for between-group LS mean (SE) difference in LDL-C: week 12
# Description: Randomization was stratified according to DM status. […] Patients were followed for 8 weeks after the last visit of the Double Blind Treatment Period (DBTP).
# Double-blind treatment period (DBTP)—A randomized, double-blind double dummy study treatment period of 24 weeks. The first injection during the double-blind period was done at the site on the day of randomization (Week 0 [D1]-V3) and as soon as possible after the call to IVRS/IWRS for randomization into the study. The subsequent injections were done by the patient (self-injection) or another designated person (such as spouse, relative, etc.) at a patient-preferred location (home, etc.).
# The primary efficacy endpoint was the percent change in calculated LDL-C from baseline to week 24, which is defined as: 100×(calculated LDL-C value at Week 24−calculated LDL-C value at baseline)/calculated LDL-C value at baseline.
# Total-C, HDL-C, TG, Apo B, Apo A-1, and Lp (a) were directly measured. LDL-C was calculated using the Friedewald formula at all visits (except Week −1 and Follow Up visit). If TG values exceeded 400 mg/dL (4.52 mmol/L) then the central lab reflexively measured (via the beta quantification method) the LDL-C rather than calculating it. Non-HDL-C was calculated by subtracting HDL-C from the total-C. Ratio Apo B/Apo A-1 was calculated.
# The primary endpoint was assessed in the intent-to-treat (ITT) population, which included all randomized patients who had at least 1 calculated LDL-C value at baseline and at one of the planned time points from weeks 4 to 24.
# Missing data were accounted for by means of a mixed effect model with repeated measures (MMRM) approach (Siddiqui et al., MMRM vs. LOCF: a comprehensive comparison based on simulation study and 25 NDA datasets”, J Biopharm Stat, vol. 19, pp. 227-246 (2009); National Research Council, “The Prevention and Treatment of Missing Data in Clinical Trials” Panel on Handling Missing Data in Clinical Trials. Committee on National Statistics, Division of Behavioral and Social Sciences and Education. 2010. Washington, D.C.: The National Academies Press; Andersen et al., “On the practical application of mixed effects models for repeated measures to clinical trial data”, Pharm Stat., vol. 12, pp. 7-16 (2013)). For the ITT analysis, all available measurements at planned time points from weeks 4 to 24 (meaning week 4, 8, 12, 16, and 24), whatever their status on or off-treatment, were used in the MMRM. One MMRM model was used for LDL-C to provide least-squares means estimates and comparison between treatment arms at weeks 24 and 12. Further details on the model are given below. For the on-treatment analysis, all available on-treatment measurements (i.e. up to 21 days after last injection/3 days after last capsule, whichever comes first) at planned time points from weeks 4 to 24 were used in the MMRM model. In the same way as for the ITT analysis, one model was used to provide estimates and comparison at week 24 and week 12 for the on-treatment analysis. Continuous key secondary endpoints other than Lp(a) and triglycerides were analyzed in a similar fashion as the primary endpoint and description of the statistical methodology for secondary endpoints and subgroup analysis is provided below.
# Outputs from the model were the baseline-adjusted least-squares (LS) mean estimates at week 24 for both treatment groups with their corresponding standard error (SE). Appropriate contrast statement was used to test the difference between these estimates at the 2-sided 5% alpha level.
# To analyze the key secondary endpoints, a hierarchical procedure was used to control type I error and handle multiplicity. Secondary efficacy endpoints were tested sequentially using the order given above, in the intent-to-treat population.
# [1] = ITT, excluding post up-titration data from patients up-titrated having LDL-C <100 mg/dL
# [2] = ITT, mAb316P 75 mg Q2W before up-titration, ezetimibe 10 mg daily
# [3] = on-treatment analysis, mAb316P 75 mg Q2W
compound,measurement,setting,value
"O=C1[C@H](CC[C@H](O)c2ccc(F)cc2)[C@@H](c2ccc(O)cc2)N1c1ccc(F)cc1 [ezetimibe, reference compound]",Apo A-1 LS mean (SE) % change from baseline to week 24,ITT,−0.6 (1.6) %
same,Apo B LS mean (SE) % change from baseline to week 24,ITT,−11.0 (2.4) %
same,HDL-C LS mean (SE) % change from baseline to week 24,ITT,1.6 (1.9) %
same,Non-HDL-C LS mean (SE) % change from baseline to week 24,ITT,−15.1 (2.9) %
same,Total cholesterol LS mean (SE) % change from baseline to week 24,ITT,−10.9 (2.2) %
same,Lp(a) adjusted mean (SE) % change from baseline to week 24,ITT,−12.3 (3.8) %
same,TGs adjusted mean (SE) % change from baseline to week 24,ITT,−10.8 (4.3) %
same,LDL-C LS mean (SE) Week 24 change from baseline (%),[1],−15.6%
same,LS mean (SE) percent reductions in LDL-C from baseline to week 24,ITT,16 (3) %
same,LDL-C reduction at week 12,[2],20 (3) % and 20%
same,Apo A-1 LS mean (SE) % change from baseline to week 24,On-treatment,−0.7 (1.6) %
same,Apo B LS mean (SE) % change from baseline to week 24,On-treatment,−11.5 (1.9) %
same,HDL-C LS mean (SE) % change from baseline to week 24,On-treatment,1.7 (1.9) %
same,Non-HDL-C LS mean (SE) % change from baseline to week 24,On-treatment,−16.6 (1.9) %
same,Total cholesterol LS mean (SE) % change from baseline to week 24,On-treatment,−12.0 (1.6) %
same,Lp(a) adjusted mean (SE) % change from baseline to week 24,On-treatment,−12.3 (4.0) %
same,TGs adjusted mean (SE) % change from baseline to week 24,On-treatment,−12.7 (4.2) %
same,"LDL-C (on treatment), mean (SD)","Week 4, ezetimibe arm (n = 51)",109.9 (22.4) mg/dL
same,"LDL-C (on treatment), mean (SD)","Week 12, ezetimibe arm (n = 51)",109.8 (25.2) mg/dL
same,"LDL-C (on treatment), mean (SD)","Week 24, ezetimibe arm (n = 51)",113.4 (25.0) mg/dL
same,LDL-C LS mean (SE) change from baseline (%),ITT,−15.6%
same,LDL-C LS mean (SE) change from baseline (%),On-treatment,−17.2%
same,estimated proportions of patients with LDL-C reductions ≧50% at week 12,ITT,3%
same,proportions of patients with LDL-C reductions ≧50% at week 12,on-treatment analysis,2%
same,reduction in Lp(a),,12%
same,LS mean (SE) LDL-C reductions from baseline to week 24,on-treatment analysis,17 (2) %
same,LDL-C reduction at week 12,[3],20 (2) % and 20%
same,reduction in LDL-C at 12 weeks,,20%
"mAb316P: human anti-PCSK9 antibody; heavy chain SEQ ID NO:5, light chain SEQ ID NO:9; HCVR SEQ ID NO:1, LCVR SEQ ID NO:6",Apo A-1 LS mean (SE) % change from baseline to week 24,ITT,4.7 (1.6) %
same,Apo B LS mean (SE) % change from baseline to week 24,ITT,−36.7 (2.3) %
same,HDL-C LS mean (SE) % change from baseline to week 24,ITT,6.0 (1.9) %
same,Non-HDL-C LS mean (SE) % change from baseline to week 24,ITT,−40.6 (2.8) %
same,Total cholesterol LS mean (SE) % change from baseline to week 24,ITT,−29.6 (2.1) %
same,Lp(a) adjusted mean (SE) % change from baseline to week 24,ITT,−16.7 (3.7) %
same,TGs adjusted mean (SE) % change from baseline to week 24,ITT,−11.9 (4.2) %
same,LDL-C LS mean (SE) Week 24 change from baseline (%),[1],−44.3%
same,LS mean (SE) percent reductions in LDL-C from baseline to week 24,ITT,47 (3) %
same,LDL-C reduction at week 12,[2],48 (3) % and 48%
same,Apo A-1 LS mean (SE) % change from baseline to week 24,On-treatment,5.3 (1.6) %
same,Apo B LS mean (SE) % change from baseline to week 24,On-treatment,−40.8 (1.9) %
same,HDL-C LS mean (SE) % change from baseline to week 24,On-treatment,8.0 (1.9) %
same,Non-HDL-C LS mean (SE) % change from baseline to week 24,On-treatment,−47.1 (1.9) %
same,Total cholesterol LS mean (SE) % change from baseline to week 24,On-treatment,−34.2 (1.6) %
same,Lp(a) adjusted mean (SE) % change from baseline to week 24,On-treatment,−17.7 (4.1) %
same,TGs adjusted mean (SE) % change from baseline to week 24,On-treatment,−14.7 (4.4) %
same,"LDL-C (on treatment), mean (SD)","Week 4, non-uptitrated at Week 12 (n = 32)",59.8 (13.6) mg/dL
same,"LDL-C (on treatment), mean (SD)","Week 4, uptitrated at Week 12 (n = 14)",83.5 (23.6) mg/dL
same,"LDL-C (on treatment), mean (SD)","Week 12, non-uptitrated at Week 12 (n = 32)",58.8 (16.8) mg/dL
same,"LDL-C (on treatment), mean (SD)","Week 12, uptitrated at Week 12 (n = 14)",78.3 (22.8) mg/dL
same,LDL-C LS mean difference (SE) % MAb316P versus ezetimibe,"Week 24, ITT, excluding post up-titration data from patients up-titrated having LDL-C <100 mg/dL",−28.7%
same,LDL-C LS mean difference (SE) % MAb316P versus ezetimibe,"Week 24, ITT, listed as MAb316P",−31.6%
same,"LDL-C (on treatment), mean (SD)","Week 24, non-uptitrated, 75 mg Q2W (n = 32)",57.8 (16.2) mg/dL
same,"LDL-C (on treatment), mean (SD)","Week 24, uptitrated to 150 mg Q2W at Week 12 (n = 14)",74.8 (19.5) mg/dL
same,LDL-C LS mean (SE) change from baseline (%),ITT,−47.2%
same,LDL-C LS mean (SE) change from baseline (%),On-treatment,−54.1%
same,estimated proportions of patients with LDL-C reductions ≧50% at week 12,ITT,58%
same,proportions of patients with LDL-C reductions ≧50% at week 12,on-treatment analysis,65%
same,reduction in Lp(a),,18%
same,patients who achieved LDL-C<70 mg/dL at Week 8,"of the 46 mAb316P-treated patients in PK analyses, 75 mg Q2W",32 patients
same,LS mean (SE) LDL-C reductions from baseline to week 24,on-treatment analysis,54 (2) %
same,LDL-C reduction at week 12,[3],53 (2) % and 53%
same,reduction in LDL-C at 12 weeks,,~50%
same,time-course of LDL-C lowering,,robust LDL-C reductions maintained from week 4 to end of the treatment period at week 24
same,time-course of LDL-C lowering,listed as MAb316P,sustained LDL-lowering effect from weeks 4 to 24
same,between-group LS mean (SE) difference in LDL-C,ITT,−28 (4) %
same,between-group LS mean (SE) difference in LDL-C,on-treatment analysis,−33 (3) %
same,Apo A-1 LS mean difference (SE) % MAb316P versus ezetimibe,"week 24, ITT",5.3 (2.2) %
same,Apo B LS mean difference (SE) % MAb316P versus ezetimibe,"week 24, ITT",−25.8 (3.3) %
same,HDL-C LS mean difference (SE) % MAb316P versus ezetimibe,"week 24, ITT",4.4 (2.7) %
same,LDL-C LS mean difference (SE) % MAb316P versus ezetimibe,"week 24, ITT",−32 (4) %
same,Lp(a) mean difference (SE) % MAb316P versus ezetimibe,"week 24, ITT",−4.4 (5.3) %
same,Non-HDL-C LS mean difference (SE) % MAb316P versus ezetimibe,"week 24, ITT",−25.5 (4.1) %
same,TGs mean difference (SE) % MAb316P versus ezetimibe,"week 24, ITT",−1.2 (5.9) %
same,Total cholesterol LS mean difference (SE) % MAb316P versus ezetimibe,"week 24, ITT",−18.7 (3.0) %
same,Apo A-1 LS mean difference (SE) % MAb316P versus ezetimibe,"week 24, On-treatment",6.1 (2.3) %
same,Apo B LS mean difference (SE) % MAb316P versus ezetimibe,"week 24, On-treatment",−29.2 (2.6) %
same,HDL-C LS mean difference (SE) % MAb316P versus ezetimibe,"week 24, On-treatment",6.2 (2.7) %
same,LDL-C LS mean difference (SE) % MAb316P versus ezetimibe,"week 24, On-treatment",−36.9%
same,Lp(a) mean difference (SE) % MAb316P versus ezetimibe,"week 24, On-treatment",−5.4 (5.7) %
same,Non-HDL-C LS mean difference (SE) % MAb316P versus ezetimibe,"week 24, On-treatment",−30.5 (2.7) %
same,TGs mean difference (SE) % MAb316P versus ezetimibe,"week 24, On-treatment",−1.9 (6.0) %
same,Total cholesterol LS mean difference (SE) % MAb316P versus ezetimibe,"week 24, On-treatment",−22.2 (2.3) %
